# Experiments:
# Assay type in all cases: in vivo
# [1] = Self-administration at onset of prodromal visual disturbances in a subject with episodic migraines; conditions: 60 kg female, 15 g orally within minutes of visual disturbances, 3 times a day for 4 days
# Source text: A 60 kg person presents with episodic migraines occurring one such headache occurring and then not again for a number of months. At each event, shortly before the headache begins, the subject has visual disturbances classic of migraine. The subject is requested to self-administer 15 grams of glyceryl tris(3-hydroxybutyrate) upon noticing the next time visual disturbance of this type appear and continue to do so 3 times a day for 4 days. The subject notices such symptoms, and ingests 15 g of glyceryl tris(3-hydroxybutyrate) within minutes of noticing the symptoms.
# [2] = Preventive administration before an expected migraine in a subject with chronic repetitive migraine; conditions: 70 kg male of Example 2, 20 g 3 times a day, days 90 to 130, started about 5-6 days before expected onset
# Source text: The subject of Example 2 discontinues the administration after 35 days, is migraine free for two months and a further episode occurs and Example 2 is followed again, counting the start of this second migraine as day 1, except that after ceasing the administration on day 35, the subject begins administration again on day 90 (about 5-6 days before an expected onset of a further migraine based on this subject's history) and continues administration for an additional 40 days (that is for days 90 to 130).
# [3] = Self-administration at migraine onset in subjects with chronic repetitive migraine; conditions: 70 kg male, 20 g at migraine onset, 3 times a day for 35 days
# Source text: There is no known or suspect event triggering these events. The subject is instructed to self-administer 20 g of glyceryl tris(3-hydroxybutyrate) upon the onset of the migraine and to continue to self-administer at this dosage 3 times a day for 35 days.
# A 60 kg person presents with chronic repetitive migraine with a similar repetitive pattern to the subject of Examples 2 and 3. They are instructed to self-administer 15 g of glyceryl tris(3-hydroxybutyrate) upon the onset of the migraine, rather than the 20 g as in Examples 2 and 3, but otherwise to follow the regimen in Examples 2 and 3.
smiles,measurement,setting,value
CC(O)CC(=O)OCC(COC(=O)CC(C)O)OC(=O)CC(C)O (stereo not shown) [glyceryl tris(3-hydroxybutyrate)],"duration of the headache that follows, versus past episodes",[1],lesser duration
same,"intensity of the headache that follows, versus past episodes",[1],lesser intensity
same,occurrence of the expected migraine (days 94-95) during the administration period,[2],no such migraine appears
same,"duration of the usual initial migraine, versus past history",[3],shorter duration
same,"frequency of the repetitive migraines, versus past history",[3],further reduced in frequency
same,"intensity of the repetitive migraines, versus past history",[3],further reduced in frequency and intensity
same,"severity of the usual initial migraine, versus past history",[3],less severe

# Reference: US20180177753A1, “GLYCERYL 3-HYDROXYBUTYRATES FOR MIGRAINE SYMPTOM MANAGEMENT” (NeuroEnergy Ventures, Inc., priority 2016, published 2018)
